Reference: article PMC10285648, “iTAG an optimized IMiD-induced degron for targeted protein degradation in human and murine cells” (iScience, 2023)

Assays:
CT26 cells = experiment: Quantitative multiplexed proteomics of CT26 cells treated with thalidomide derivatives; format: cell-based, mouse; conditions: 24h
Experimental: After showing that iTAG was active in mouse cells, we explored whether more potential degrons were active in the murine context. […]2216[50] and profiled the cellular proteomes using quantitative multiplexed proteomics. […] Data are plotted as Log2 fold change relative to DMSO versus Log10 of p value. (B) Proteome of CT26 CRBN KO cells treated with 10uM of FPFT2216 for 24h analyzed and plotted as in (A). (C) HEK293T, CT26, AT3 and 4434 cells treated with 10uM of FPFT2216 for 24h in presence of absence of MLN4924. […] were analyzed using western blotting. (D) Structural representation of PDE6D with the critical […] highlighted in red. (E) CT26, AT3 and 4434 cells transiently expressing WT or […] mutant Flag-PDE6D treated with 10uM of FPFT2216 for 16h. (F) Docking model for FPFT-2216 (in magenta) in the binding site of mouse CRBN (in orange). H-bond interactions are shown as cyan dashes. (G) Binding model for the ternary complex formed by mouse CRBN (in orange), mouse PDE6D (in cyan) and FPFT-2216 (in magenta), showing the […] loop close to the molecular glue. Samples for quantitative proteomics were prepared using the […] workflow.[60] Briefly, the cell pellets were lysed in a buffer containing 150 μL 0.1 M triethylammonium bicarbonate (TEAB), 1% sodium deoxycholate (SDC), 10% isopropanol, 50mM NaCl, 5 mM tris-2-carboxyethyl phosphine (TCEP), 10 mM iodoacetamide (IAA), universal nuclease, and supplemented with protease and phosphatase inhibitors. Samples were bath sonicated for 5 min, incubated at RT for 45 min and protein concentration was measured with the Bradford Protein Assay (Biorad) according to manufacturer instructions. Aliquots containing 30 μg of total protein were used for protein digestion. The resultant peptides were labeled with a tandem mass tag (TMTpro) multiplex reagent vial (Thermo Scientific) according to the manufacturer instructions. All the TMT-labelled samples were combined in equal amounts to a single tube. The TMT-peptide mixture was acidified with 1% formic acid and the precipitated SDC was removed by centrifugation. The sample was then dried with a centrifugal vacuum concentrator. LC-MS analysis was performed on the Dionex Ultimate 3000 UHPLC system coupled with the Orbitrap Lumos mass spectrometer (Thermo Scientific). Samples were analyzed with the EASY-Spray C18 capillary column (75 μm × 50 cm, 2 μm) at 50°C. […] MS3 quantification was obtained with higher-energy collisional dissociation (HCD) fragmentation of the top 5 most abundant CID fragments isolated with synchronous precursor selection (SPS). […] The SEQUEST-HT search engine was used to analyze the acquired mass spectra in Proteome Discoverer 2.4 (Thermo Scientific) for protein identification and quantification. […]

PDE6D = target: T1, PDE6D (Mus musculus, UniProt O55057+Q8C7D2); experiment: Western blot validation of PDE6D degradation; format: cell-based; conditions: AT3, 4434 and CT26, 10uM, 24h, western blotting
T1 construct: endogenous in cells; host or cells: AT3, 4434, CT26 (mouse); HEK293T run as human control
Experimental: (§1) Figure 6 FPFT2216 induces the degradation of PDE6D in murine cells (A) Proteomes of CT26 cells treated with 10uM of the indicated compounds for 24h and analyzed using quantitative proteomics. Data are plotted as Log2 fold change relative to DMSO versus Log10 of p value. (B) Proteome of CT26 CRBN KO cells treated with 10uM of FPFT2216 for 24h analyzed and plotted as in (A). (C) HEK293T, CT26, AT3 and 4434 cells treated with 10uM of FPFT2216 for 24h in presence of absence of MLN4924. Lysats were analyzed using western blotting. (D) Structural representation of PDE6D with the critical Glycine 28 highlighted in red. (E) CT26, AT3 and 4434 cells transiently expressing WT or G28N mutant Flag-PDE6D treated with 10uM of FPFT2216 for 16h. (F) Docking model for FPFT-2216 (in magenta) in the binding site of mouse CRBN (in orange). H-bond interactions are shown as cyan dashes. (G) Binding model for the ternary complex formed by mouse CRBN (in orange), mouse PDE6D (in cyan) and FPFT-2216 (in magenta), showing the Gly28 loop close to the molecular glue.
(§2) Cells were lysed with SDS lysis buffer (2% SDS, 10% Glycerol, 50mM Tris pH 6.8) and boiled at 95°C for 30min. Protein concentration was measured using Pierce BCA Protein Assay Kit (ThermoFischer) following manufacturer’s recommendations. […]

CK1α = experiment: Western blot validation of CK1α degradation; format: cell-based, human, mouse; conditions: HEK293T versus AT3, 4434, CT26, 10uM, 24h, western blotting
Experimental: as §1, §2

Flag-PDE6D G28N mutant = target: T2, Flag-PDE6D G28N mutant (Mus musculus, UniProt O55057, G28N); experiment: Degradation of WT or G28N mutant Flag-PDE6D in murine cells; format: cell-based; conditions: CT26, AT3 and 4434, 10uM, 16h
T2 construct: expressed in transfected cells; host or cells: CT26, AT3 and 4434 murine cells, transient
Experimental: as §1
After validating PDE6D degradation, we progressed to identify the critical degron site on the protein. We hypothesized that PDE6D binding to CRBN would require a Gly loop motif and used known structural features of IMiD degrons to map this site in PDE6D (see STAR Methods for details). […]

T2 sequence (Q8C7D2 whole entry partner): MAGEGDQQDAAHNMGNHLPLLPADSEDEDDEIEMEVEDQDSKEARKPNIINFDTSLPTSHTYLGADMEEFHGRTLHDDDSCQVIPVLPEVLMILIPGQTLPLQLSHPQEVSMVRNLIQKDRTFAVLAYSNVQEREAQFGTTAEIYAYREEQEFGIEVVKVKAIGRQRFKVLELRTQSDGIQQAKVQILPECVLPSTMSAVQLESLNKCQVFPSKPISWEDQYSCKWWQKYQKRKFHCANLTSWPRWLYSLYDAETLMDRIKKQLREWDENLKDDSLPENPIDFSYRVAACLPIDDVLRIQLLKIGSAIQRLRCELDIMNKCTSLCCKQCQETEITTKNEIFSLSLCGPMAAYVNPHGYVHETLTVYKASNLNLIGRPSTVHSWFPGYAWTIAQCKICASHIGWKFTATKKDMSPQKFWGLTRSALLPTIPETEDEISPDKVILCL
T2 sequence (Q3U1J4 2-1140 partner limits assumed): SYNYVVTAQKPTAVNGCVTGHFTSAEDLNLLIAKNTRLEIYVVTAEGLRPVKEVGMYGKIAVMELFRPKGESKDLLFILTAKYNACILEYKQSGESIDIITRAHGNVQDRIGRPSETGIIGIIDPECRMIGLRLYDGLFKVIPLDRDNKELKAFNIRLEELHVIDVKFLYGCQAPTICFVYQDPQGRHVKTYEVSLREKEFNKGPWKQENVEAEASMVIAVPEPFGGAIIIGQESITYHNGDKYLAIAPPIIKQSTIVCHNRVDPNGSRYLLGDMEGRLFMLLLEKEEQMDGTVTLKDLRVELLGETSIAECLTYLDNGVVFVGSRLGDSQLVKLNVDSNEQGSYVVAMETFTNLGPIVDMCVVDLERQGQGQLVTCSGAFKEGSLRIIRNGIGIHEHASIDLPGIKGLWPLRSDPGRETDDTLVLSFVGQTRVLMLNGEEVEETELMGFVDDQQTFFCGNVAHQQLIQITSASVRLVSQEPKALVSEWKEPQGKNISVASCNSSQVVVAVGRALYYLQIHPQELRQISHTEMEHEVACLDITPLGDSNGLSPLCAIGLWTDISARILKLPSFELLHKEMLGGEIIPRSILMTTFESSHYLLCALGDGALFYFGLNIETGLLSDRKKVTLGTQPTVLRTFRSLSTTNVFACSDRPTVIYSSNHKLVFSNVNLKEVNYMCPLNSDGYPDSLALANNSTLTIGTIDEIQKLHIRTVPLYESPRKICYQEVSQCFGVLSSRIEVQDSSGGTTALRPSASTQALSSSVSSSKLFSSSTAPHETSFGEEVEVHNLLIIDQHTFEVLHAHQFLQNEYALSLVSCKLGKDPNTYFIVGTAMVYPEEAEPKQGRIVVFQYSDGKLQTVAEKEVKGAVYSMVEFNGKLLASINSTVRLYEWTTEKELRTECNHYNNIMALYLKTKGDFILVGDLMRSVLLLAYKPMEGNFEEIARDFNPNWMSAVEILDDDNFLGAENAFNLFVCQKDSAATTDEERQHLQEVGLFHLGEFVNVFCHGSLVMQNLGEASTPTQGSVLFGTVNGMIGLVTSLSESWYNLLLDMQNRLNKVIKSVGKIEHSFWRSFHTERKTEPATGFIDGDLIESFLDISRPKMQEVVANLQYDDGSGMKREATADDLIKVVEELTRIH
T2 sequence (O55057 whole entry G28N): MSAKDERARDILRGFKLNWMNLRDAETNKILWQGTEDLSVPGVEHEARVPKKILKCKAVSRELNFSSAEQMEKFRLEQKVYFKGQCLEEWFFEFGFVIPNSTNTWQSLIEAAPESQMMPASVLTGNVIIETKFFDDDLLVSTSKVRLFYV
T1 sequence (O55057 whole entry): as the sequence (O55057 whole entry G28N) above, with N28G counted along it
T1 sequence (Q8C7D2 whole entry): as the sequence (Q8C7D2 whole entry partner) above
T1 sequence (Q3U1J4 2-1140 partner limits assumed): as the sequence (Q3U1J4 2-1140 partner limits assumed) above

- degradation of PDE6D (PDE6D): induced the degradation of PDE6D
- degradation of G28N mutant PDE6D (Flag-PDE6D G28N mutant): not degraded
SMILES: COc1cscc1-c1cn(C2CCC(=O)NC2=O)nn1 (centres unmarked) [FPFT2216]
- effect on cellular proteome (CT26 cells; CT26, 10uM): strong downregulation of PDE6D, Rab28 and to a much lesser extent CK1α
- CRBN dependence of proteome effects (CT26 cells; CT26 CRBN KO cells, 10uM): CRBN dependent
- degradation of CK1α (CK1α): only degraded in human cells
